Experimental findings from PMC5863483, “Low HLA binding of diabetes-associated CD8+ T-cell epitopes is increased by post translational modifications” (BMC Immunology, 2018) are described below.

Where a SMILES comes first, the peptide text is derived from it. Where no end group is shown, it is not given here. [ ]: non-standard residue; d: D form. Cya = N[C@@H](CS(=O)(=O)O)C(=O)O; Cit = NC(=O)NCCC[C@H](N)C(=O)O

The target of one assay is HLA-A*02:01 (Homo sapiens, UniProt P04439, D140Y/D185E/D98H/E176V/E277Q/G131W/G231S/I119V/I121R/I166T/I218V/L300P/L318F/N151K/N90K/P208A/P217A/Q86G/Q94H/R138H/R169H/T345S). The assay is described as follows: HLA-peptide competition binding assay, A*02:01.
Settings: not given
On to SLTTISTTL [reference compound], for which the IC50 is 237 nM.

Compound `C[C@@H](O)[C@H](NC(=O)[C@H](CCCCN)NC(=O)[C@@H]1CCCN1C(=O)[C@@H](NC(=O)[C@H](Cc1ccc(O)cc1)NC(=O)[C@H](Cc1ccccc1)NC(=O)[C@H](Cc1ccccc1)NC(=O)CN)[C@@H](C)O)C(=O)N[C@@H](CCCNC(N)=O)C(=O)O` yielded an IC50 of 38400 nM.

Turning to LLHVHHSCPL [reference compound], the IC50 came to 7840 nM.

Still in this assay, the particulars now being: post-translationally modified insulin peptide; competition binding assay; a dash indicates IC50 >40,000 nM; read-out: A*02:01 binding (IC50 nM) Modified.
For `C[C@@H](O)[C@H](NC(=O)[C@H](Cc1ccc(O)cc1)NC(=O)[C@H](Cc1ccccc1)NC(=O)[C@H](Cc1ccccc1)NC(=O)CNC(=O)[C@H](CCCNC(N)=O)NC(=O)[C@H](CCC(=O)O)NC(=O)CN)C(=O)N1CCC[C@H]1C(=O)O` (H-GE[Cit]GFFYTP-OH; N-terminus and C-terminus assumed), the IC50 was greater than 40000 nM.

In the case of VDEHLCGSHL, the IC50 is greater than 40000 nM.

Turning to `CC(C)C[C@H](NC(=O)[C@H](CC(=O)O)NC(=O)[C@H](CCC(=O)O)NC(=O)[C@H](C)NC(=O)[C@H](CCC(=O)O)NC(=O)[C@H](CCCNC(N)=O)NC(=O)[C@H](CCCNC(N)=O)NC(=O)[C@@H](NC(=O)[C@H](CCCCN)NC(=O)[C@@H]1CCCN1)[C@@H](C)O)C(=O)O` (H-PKT[Cit][Cit]EAEDL-OH; N-terminus and C-terminus assumed), the IC50 was greater than 40000 nM.

With `C[C@@H](O)[C@H](NC(=O)[C@H](CCCCN)NC(=O)[C@@H]1CCCN1C(=O)[C@@H](NC(=O)[C@H](Cc1ccc(O)cc1)NC(=O)[C@H](Cc1ccccc1)NC(=O)[C@@H](N)Cc1ccccc1)[C@@H](C)O)C(=O)N[C@@H](CCCNC(N)=O)C(=O)N[C@@H](CCCNC(N)=O)C(=O)O` (H-FFYTPKT[Cit][Cit]-OH; N-terminus and C-terminus assumed), the IC50 was greater than 40000 nM.

As for `CC(C)C[C@H](N)C(=O)N[C@H](C(=O)N[C@@H](CS(=O)(=O)O)C(=O)NCC(=O)N[C@@H](CCC(=O)O)C(=O)N[C@@H](CCCNC(=N)N)C(=O)NCC(=O)N[C@@H](Cc1ccc(O)cc1)C(=O)N[C@@H](Cc1ccc(O)cc1)C(=O)N[C@@H](Cc1ccc(O)cc1)C(=O)O)C(C)C` [LVBGERGYYY] (H-LV[Cya]GERGYYY-OH; N-terminus and C-terminus assumed), the IC50 was greater than 40000 nM.

Turning to GERGYYYTPK, the IC50 was greater than 40000 nM.

In the case of `CC(C)C[C@H](NC(=O)[C@H](Cc1c[nH]cn1)NC(=O)[C@H](CCC(N)=O)NC(=O)[C@@H](N)CC(N)=O)C(=O)N[C@@H](CS(=O)(=O)O)C(=O)NCC(=O)N[C@@H](CO)C(=O)N[C@@H](Cc1c[nH]cn1)C(=O)N[C@@H](CC(C)C)C(=O)N[C@H](C(=O)O)C(C)C` [NQHLBGSHLV] (H-NQHL[Cya]GSHLV-OH; N-terminus and C-terminus assumed), the IC50 was greater than 40000 nM.

Consider `CC(C)C[C@H](N)C(=O)N[C@H](C(=O)N[C@@H](CS)C(=O)NCC(=O)N[C@@H](CCC(=O)O)C(=O)N[C@@H](CCCNC(N)=O)C(=O)NCC(=O)N[C@@H](Cc1ccccc1)C(=O)N[C@@H](Cc1ccccc1)C(=O)N[C@@H](Cc1ccc(O)cc1)C(=O)O)C(C)C` (H-LVCGE[Cit]GFFY-OH; N-terminus and C-terminus assumed), for which the IC50 was greater than 40000 nM.

The same assay, now with this note: read-out: A*02:01 binding (IC50 nM) Modified.
For the compound `CC(C)C[C@H](NC(=O)[C@H](Cc1c[nH]cn1)NC(=O)[C@H](CO)NC(=O)CNC(=O)[C@H](CS(=O)(=O)O)NC(=O)[C@@H](N)CC(C)C)C(=O)N[C@H](C(=O)N[C@@H](CCC(=O)O)C(=O)N[C@@H](C)C(=O)O)C(C)C` [LBGSHLVEA] (H-L[Cya]GSHLVEA-OH), the IC50 turned out to be 14800 nM.

In the case of `CC(C)C[C@H](NC(=O)[C@@H](N)Cc1ccc(O)cc1)C(=O)N[C@H](C(=O)N[C@@H](CS(=O)(=O)O)C(=O)NCC(=O)N[C@@H](CCC(=O)O)C(=O)N[C@@H](CCCNC(=N)N)C(=O)NCC(=O)N[C@@H](Cc1ccc(O)cc1)C(=O)N[C@@H](Cc1ccc(O)cc1)C(=O)O)C(C)C` [YLVBGERGYY] (H-YLV[Cya]GERGYY-OH), the IC50 is 2420 nM.

As for `C[C@H](NC(=O)[C@H](CCC(=O)O)NC(=O)[C@H](CCCNC(N)=O)NC(=O)[C@H](CCCNC(N)=O)NC(=O)[C@@H](NC(=O)[C@H](CCCCN)NC(=O)[C@@H]1CCCN1C(=O)[C@@H](NC(=O)[C@@H](N)Cc1ccc(O)cc1)[C@@H](C)O)[C@@H](C)O)C(=O)O` (H-YTPKT[Cit][Cit]EA-OH), the IC50 amounted to 34700 nM.

Take YLVCGERGYF: the IC50 was 2010 nM.

With `CC(C)[C@H](N)C(=O)N[C@@H](CS)C(=O)NCC(=O)N[C@@H](CCC(=O)O)C(=O)N[C@@H](CCCNC(N)=O)C(=O)NCC(=O)N[C@@H](Cc1ccccc1)C(=O)N[C@@H](Cc1ccccc1)C(=O)N[C@@H](Cc1ccc(O)cc1)C(=O)O` (H-VCGE[Cit]GFFY-OH), the IC50 amounted to 33500 nM.

For CGERGYFYT, the IC50 was found to be 26300 nM.

Staying with this assay, now noted: read-out: A*02:01 binding (IC50 nM) Modified; post-translationally modified insulin peptide; competition binding assay; a dash indicates IC50 >40,000 nM.
As to ERGYYYTPK, the IC50 was greater than 40000 nM.

Still in this assay, the particulars now being: read-out: A*02:01 binding (IC50 nM) WT.
Take FVNQHLCGSH: the IC50 was determined as 13200 nM.

Turning to HLVEALYLVC, the IC50 was 692 nM.

As for VNQHLCGSHL, the IC50 was 6640 nM.

As for NQHLCGSHLV, the IC50 is 7990 nM.

The assay is the same for the next values; noted with them: read-out: IC50 nM, target assay A*02:01.
Take YIPSCTVVGM [reference compound]: the IC50 is 9510 nM.

As to FLLSLFSLWL [reference compound], the IC50 is 16 nM.

Regarding NLFLFLFAV [reference compound], the IC50 worked out at 1230 nM.

For the compound “LCGSHLVEAL [LCGSHLVEAL, reference compound]”, the IC50 was greater than 40000 nM.

Regarding ILMHCQTTL [reference compound], the IC50 came out at 478 nM.

Regarding HIAGSLAVV [reference compound], the IC50 came out at 216 nM.

As to VMNILLQYV [reference compound], the IC50 came to 2020 nM.

On to KLQVFLIVL [reference compound], for which the IC50 amounted to 1370 nM.

On to SLAAGVKLL [reference compound], for which the IC50 was 3690 nM.

For TVASRLGPV [reference compound], the IC50 came to 7700 nM.

SLEEEIRFL [reference compound]: the IC50 was 472 nM.

As to SLSPLQAEL [reference compound], the IC50 came out at 101 nM.

With SLYHVYEVNL [reference compound], the IC50 was determined as 209 nM.

Take WLLPLWAALPL [reference compound]: the IC50 was 3.2 nM.

With AVAANIVLTV [reference compound], the IC50 came out at 575 nM.

As to `CC[C@H](C)[C@H](NC(=O)[C@H](CC(N)=O)NC(=O)[C@H](C)NC(=O)[C@H](CC(C)C)NC(=O)[C@@H](N)CCCCN)C(=O)N[C@@H](CCC(N)=O)C(=O)N[C@@H](CS)C(=O)N1CCC[C@H]1C(=O)N[C@@H](CS)C(=O)N[C@@H](CC(C)C)C(=O)O` [reference compound] (H-KLANIQCPCL-OH), the IC50 worked out at 121 nM.

Take NLLGRFELIGI [reference compound]: the IC50 was determined as 1.8 nM.

The assay is the same for the next values; noted with them: unmodified (WT) insulin peptide; competition binding assay; a dash indicates IC50 >40,000 nM; read-out: A*02:01 binding (IC50 nM) WT.
Turning to QHLCGSHLVE, the IC50 was greater than 40000 nM.

For the compound “LCGSHLVEAL [LCGSHLVEAL, reference compound]”, the IC50 was greater than 40000 nM.

As to KTRREAEDLQ, the IC50 is greater than 40000 nM.

Turning to `C[C@@H](O)[C@H](NC(=O)[C@H](Cc1ccc(O)cc1)NC(=O)[C@H](Cc1ccccc1)NC(=O)[C@H](Cc1ccccc1)NC(=O)CNC(=O)[C@H](CCCNC(=N)N)NC(=O)[C@H](CCC(=O)O)NC(=O)CN)C(=O)N1CCC[C@H]1C(=O)N[C@@H](CCCCN)C(=O)O`, the IC50 was greater than 40000 nM.

Take HLCGSHLVE: the IC50 is greater than 40000 nM.

For FVNQHLCGS, the IC50 is greater than 40000 nM.

Consider CGERGFFYTP, for which the IC50 was greater than 40000 nM.

Staying with this assay, now noted: unmodified (wild type) insulin-derived peptide; radiolabeled ligand competition, purified MHC, two-day incubation, three or more independent experiments; read-out: A*02:01 binding, WT.
For the compound MALWMRLLP, the IC50 turned out to be 4540 nM.
